Test results from ChEMBL document CHEMBL1201862, “PubChem BioAssay data set” (2004).
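Results reflect a 48-hour exposure of cells in 96-well plates to compound at five concentrations. Here, GI50 denotes the concentration required for 50% inhibition of growth.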 Activity calls are given as the source filed them. Rule as the data show it: active = GI50 up to about 1.1 µM and inactive = higher.

Assays:
Experiment in all cases: DTP human tumour cell line panel, 48 h
[1] = tested on: SK-MEL-5
[2] = tested on: CAKI-1
[3] = tested on: OVCAR-5
[4] = tested on: SK-OV-3
[5] = tested on: KM12
[6] = tested on: MDA-N
[7] = tested on: SN12C
[8] = tested on: MOLT-4
[9] = tested on: UO-31
[10] = tested on: OVCAR-8
[11] = tested on: MCF7
[12] = tested on: HOP-92
[13] = tested on: DU-145
[14] = tested on: LOX IMVI
[15] = tested on: NCI-H23
[16] = tested on: SK-MEL-28
[17] = tested on: CCRF-CEM
[18] = tested on: HL-60
[19] = tested on: K562
[20] = tested on: BT-549

Measured: GI50

Fc1sc2c(c1F)C1CCC2C1 (centres undefined)
inactive: [1] > 100 µM | [2] > 100 µM | [3] > 100 µM | [4] > 100 µM | [5] > 100 µM | [6] 63.4 µM | [7] > 100 µM | [8] 34.6 µM | [9] 54 µM | [10] > 100 µM | [11] > 100 µM | [12] > 100 µM | [13] 85.7 µM | [14] 42.5 µM | [15] 58.3 µM | [16] > 100 µM

COc1cc(O)c2c(c1)OCC(Cc1ccc(O)cc1)C2=O (centres undefined)
inactive: [1] 44.4 µM | [2] 68.5 µM | [3] > 100 µM | [4] > 100 µM | [5] > 100 µM | [6] > 100 µM | [17] > 100 µM | [7] > 100 µM | [8] > 100 µM | [18] > 100 µM | [9] > 100 µM | [10] > 100 µM | [12] 37.9 µM | [13] > 100 µM | [14] > 100 µM | [19] > 100 µM | [15] > 100 µM | [16] > 100 µM

COc1cc2c[n+]3c4c(c2c(OC)c1OC)CCCC4CC3 (centres undefined)
inactive: [1] 19.3 µM | [2] > 100 µM | [3] > 100 µM | [4] > 100 µM | [5] 30.1 µM | [6] > 100 µM | [17] 35.3 µM | [8] > 100 µM | [9] > 100 µM | [12] > 100 µM | [13] > 100 µM | [19] 62.4 µM | [15] 34.8 µM | [16] > 100 µM

Oc1cc2c(cc1C(c1ccc3c(c1)OCO3)N1CCN(C(c3ccc4c(c3)OCO4)c3cc4c(cc3O)OCO4)CC1)OCO2 (centres undefined)
inactive: [1] 18.6 µM | [2] 20.5 µM | [3] 18.2 µM | [20] 13.7 µM | [4] 27 µM | [5] 16.7 µM | [7] 16 µM | [8] 7.08 µM | [18] 32.5 µM | [9] 12 µM | [10] 14 µM | [11] 27.2 µM | [12] 23.2 µM | [13] 20.3 µM | [14] 3.24 µM | [19] 21.4 µM | [15] 16.9 µM | [16] 2.83 µM

Cc1nc(O)nc(N(CCO)/N=C/c2ccc(Cl)cc2)c1C(=O)Nc1ccc(Cl)cc1
inactive: [1] > 100 µM | [2] > 100 µM | [3] > 100 µM | [4] 58.2 µM | [5] > 100 µM | [6] > 100 µM | [17] > 100 µM | [7] > 100 µM | [8] > 100 µM | [18] > 100 µM | [9] > 100 µM | [10] 99.5 µM | [11] > 100 µM | [12] > 100 µM | [13] > 100 µM | [14] > 100 µM | [19] > 100 µM | [15] > 100 µM | [16] > 100 µM

[BH3-][P+]1(CC[P@@+]([BH3-])(c2ccccc2)c2ccccc2OC)[C@@H](C)[C@@H](O)[C@H](O)[C@@H]1C (some centres undefined)
inactive: [1] 15.7 µM | [2] 15.6 µM | [3] 18.1 µM | [4] 22.8 µM | [5] 15.8 µM | [6] 16 µM | [17] 24.2 µM | [7] 13.4 µM | [8] 20.4 µM | [18] 23.2 µM | [9] 10.1 µM | [10] 17.5 µM | [11] 18.2 µM | [12] 16.6 µM | [13] 17.3 µM | [14] 2.44 µM | [19] 26.1 µM | [15] 16 µM | [16] 17.9 µM
